From patent US5326766A, “4-(2-(4-(2-pyridinyloxy)phenyl)ethoxy)quinazoline and analogues thereof” (priority 1992, dated 1994)

What was measured:
[1] = system: Pyricularia oryzae (rice blast); assay: whole plant or invertebrate; type: in vivo; details: Pyricularia oryzae, foliar, read-out: PYRIOR disease control, host rice; foliar spray; 400 ppm (+++: 100 ppm)
[2] = system: aster leafhopper (Macrosteles fascifrons); assay: whole plant or invertebrate; type: in vivo; details: Macrosteles fascifrons, 24 h, read-out: ALH percent mortality
Experimental: (§1) The compounds identified in Table I were tested for miticidal and insecticidal activity against eight species. The following abbreviations are used in the Table III:
ALH refers to aster leafhopper
(§2) In conducting evaluations of insecticidal activity, each test compound was formulated as a 400 ppm solution, and this solution was then diluted with water to give lesser concentrations. The 400 ppm solution was prepared by combining 19.2 mL of 0.05% solution of Tween 20 (polyoxyethylene (20) sorbitan monolaurate) in water with a solution of 8 mg of the compound in 0.8 mL of acetone/EtOH (9/1).
Activity against aster leafhopper (Macrosteles fascifrons) was tested as follows. The test was run using concentrations of 400 ppm and 50 ppm. One ounce plastic cups containing a cotton wick was sprayed with 0.4 mL of formulated material using a flat-fan nozzle. The excess moisture was allowed to evaporate. Then five to ten carbon dioxide anesthetized adult leafhoppers were added to each cup. The cups were capped and held at room temperature for 24 hours. Percent mortality was then determined.

[3] = system: beet armyworm (Spodoptera exiqua); assay: Activity against beet armyworm; type: in vivo; details: Spodoptera, 144 h, 6 days, read-out: BAW activity (rated on live and dead larvae and size of live larvae)
Experimental: as §1
BAW refers to beet armyworm
as §2
Activity against beet armyworm (Spodoptera exiqua) was evaluated as follows. The test is run using concentrations of 400 ppm and 50 ppm. A general purpose lepidoptera artificial diet was diluted to half strength with a 5% non nutritive agar. 8 mL of this diet material was dispensed into one ounce diet cups. One hour prior to treatment, 35 to 40 eggs were dispensed onto the diet surface. The cups were then sprayed with formulated material through a flat-fan nozzle. Treated cups were air dried prior to sealing with plastic caps. The cups were held for 6 days at room temperature. Activity was then rated based on the total number of live and dead larvae, and on the size of live larvae.

[4] = system: Southern corn rootworm (Diabrotica undecimpuctata howardi Barber); assay: whole plant or invertebrate; type: in vivo; details: 400 ppm, soil concentration of 24 ppm, 3-4 days, read-out: SCRW mortality
Experimental: as §1
SCRW refers to southern corn rootworm
as §2
Activity on Southern corn rootworm (Diabrotica undecimpuctata howardi Barber) was evaluated by adding one mL of test solution containing a predetermined concentration of test compound to a cup containing a kernel of corn in 16 g of sterile soil. This produces a soil concentration of 24 ppm. After 1.5 to 2 hours of drying, five 4th instar corn rootworm larvae were added to the individual cups. Mortality was measured at 3-4 days by emptying the cup onto a pan and inspecting the soil for live rootworms.

[5] = system: tobacco budworm (Heliothis virescens); assay: Activity against tobacco budworm; type: in vivo; details: Heliothis virescens, 144 h, 6 days, read-out: TBW activity (rated on live and dead larvae and size of live larvae)
Experimental: as §1
TBW refers to tobacco budworm
as §2
Activity against tobacco budworm (Heliothis virescens) was evaluated as follows. A general purpose lepidoptera artificial diet was diluted to half strength with a 5% non nutritive agar. 8 mL of this diet material was dispensed into each one ounce diet cup. One hour prior to treatment 18 to 20 eggs were dispensed onto the diet surface. The cups were then sprayed with formulated material through a flat-fan nozzle. The test was run using concentrations of 400 ppm and 50 ppm. Treated cups were air dried prior to sealing with plastic caps. The cups were held for 6 days at room temperature. Activity was then rated based on the total number of live and dead larvae, and on the size of live larvae.

[6] = system: German cockroach (Blattella germanicus); assay: whole plant or invertebrate; type: in vivo; details: 240 h, ten days, read-out: GECR activity (rated on live and dead insects)
Experimental: as §1
GECR refers to German cockroach
as §2
Activity against German cockroach (Blattella germanicus) was evaluated as follows. 8 mL of alfalfa based green insect diet material was dispensed into a one ounce diet cup. The cups were then sprayed with formulated material through a flat-fan nozzle. The test was run using concentrations of 400 ppm and 50 ppm. Treated cups were air dried for 24 hours and infested with five late third or early fourth instar German cockroaches. The cups were capped and held for ten days in an environmental growth chamber at a temperature of […]. Activity was then rated based on the total number of live and dead insects.

[7] = system: cotton aphid (Aphis gossypii); assay: whole plant or invertebrate; details: 72 h; for mortality at 50 ppm: read-out: CA activity (percent based on aphids present in plants sprayed with solvent alone), 50 ppm, squash plants, three days after treatment; for mortality at 400 ppm: read-out: CA activity (percent based on aphids present in plants sprayed with solvent alone), 400 ppm, squash plants, three days after treatment
[8] = system: two spotted spider mite (Tetranychus urticae); assay: whole plant or invertebrate; details: 72 h; for mortality at 50 ppm: read-out: TSSM activity (percent based on mites present in plants sprayed with solvent alone), 50 ppm, squash plants, three days after treatment; for mortality at 400 ppm: read-out: TSSM activity (percent based on mites present in plants sprayed with solvent alone), 400 ppm, squash plants, three days after treatment
[9] = system: Plasmopara viticola (downy mildew); assay: Foliar spray fungicide test, Plasmopara viticola (downy mildew) on grape; details: Plasmopara viticola, foliar, read-out: PLASVI disease control
Experimental: (§3) The test compounds were formulated for application by dissolving 50 mg of the compound into 1.25 ml of solvent. The solvent was prepared by mixing 50 ml of "Tween 20" (polyoxyethylene (20) sorbitan monolaurate emulsifier) with 475 ml of acetone and 475 ml of ethanol. The solvent/compound solution was diluted to 125 ml with deionized water. The resulting formulation contains 400 ppm test chemical. Lower concentrations were obtained by serial dilution with the solvent-surfactant mixture.
(§4) The formulated test compounds were applied by foliar spray.
(§5) The formulated technical compounds were sprayed on all foliar surfaces of the host plants to past run-off. Single pots of each host plant were placed on raised, revolving pedestals in a fume hood. Test solutions were sprayed on all foliar surfaces. All treatments were allowed to dry and the plants were inoculated with the appropriate pathogens within 24 hours.
(§6) The effectiveness of test compounds in controlling disease was rated using the following scale.

[10] = system: Leptosphaeria nodorum (glume blotch); assay: Foliar spray fungicide test, Leptosphaeria nodorum (glume blotch) on wheat; details: Parastagonospora nodorum, in Triticum aestivum, foliar, read-out: LETPNO disease control, host wheat, 400 ppm (+++: 100 ppm)
Experimental: as §3, §4, §5, §6

[11] = system: Puccinia recondita tritici (leaf rust); assay: Foliar spray fungicide test, Puccinia recondita tritici (leaf rust) on wheat; details: Puccinia recondita, in Triticum aestivum, foliar, read-out: PUCCRT disease control, host wheat, 400 ppm (+++: 100 ppm)
Experimental: as §3
(§7) The formulated test compounds were applied by foliar spray. The following plant pathogens and their corresponding plants were employed.
Puccinia recondita PUCCRT wheat
as §5, §6

[12] = system: Erysiphe graminis tritici (powdery mildew); assay: Foliar spray fungicide test, Erysiphe graminis tritici (powdery mildew) on wheat; details: Blumeria graminis, in Triticum aestivum, foliar, read-out: ERYSGT disease control, host wheat, 400 ppm (+++: 100 ppm)
Experimental: as §3, §7, §5, §6

SMILES: Fc1cccc2c(OCCc3ccc(Oc4cc(C(F)(F)F)ccn4)cc3)ncnc12 [Compound 12]
- pest or weed control at 400 µg/mL [1]: 90 to 100%
- mortality at 50 ppm [2]: 80%
- mortality at 400 ppm [2]: 100%
- pest or weed control at 50 ppm [3]: 100%
- pest or weed control at 400 ppm [3]: 100%
- mortality at 24 ppm [4]: 0%
- pest or weed control at 50 ppm [5]: 70%
- pest or weed control at 400 ppm [5]: 100%
- mortality at 50 ppm [6]: 0%
- mortality at 400 ppm [6]: 60%
- mortality at 50 ppm [7]: 100%
- mortality at 400 ppm [7]: 100%
- mortality at 50 ppm [8]: 90%
- mortality at 400 ppm [8]: 100%
- pest or weed control at 400 µg/mL [9]: 90 to 100%
- pest or weed control at 400 µg/mL [10]: 20 to 89%
- pest or weed control at 400 µg/mL [11]: 90 to 100%
- pest or weed control at 400 µg/mL [12]: 90 to 100%

SMILES: Fc1cccc2ncnc(OCCc3ccc(Oc4ccc(Cl)cn4)cc3)c12 [Compound 16]
- pest or weed control at 400 µg/mL [1]: 90 to 100%
- mortality at 50 ppm [2]: 80%
- mortality at 400 ppm [2]: 100%
- pest or weed control at 50 ppm [3]: 100%
- pest or weed control at 400 ppm [3]: 100%
- mortality at 24 ppm [4]: 80%
- pest or weed control at 50 ppm [5]: 100%
- pest or weed control at 400 ppm [5]: 100%
- mortality at 50 ppm [6]: 0%
- mortality at 400 ppm [6]: 40%
- mortality at 50 ppm [7]: 100%
- mortality at 400 ppm [7]: 100%
- mortality at 50 ppm [8]: 100%
- mortality at 400 ppm [8]: 100%
- pest or weed control at 400 µg/mL [9]: 90 to 100%
- pest or weed control at 400 µg/mL [10]: 20 to 89%
- pest or weed control at 400 µg/mL [11]: 90 to 100%
- pest or weed control at 400 µg/mL [12]: 90 to 100%

SMILES: N#Cc1ccc(Oc2ccc(CCOc3ncnc4c(F)cccc34)cc2)nc1 [Compound 20]
- pest or weed control at 400 µg/mL [1]: 90 to 100%
- mortality at 400 ppm [2]: 0%
- pest or weed control at 400 ppm [3]: 0%
- mortality at 24 ppm [4]: 0%
- pest or weed control at 400 ppm [5]: 0%
- mortality at 400 ppm [6]: 0%
- mortality at 400 ppm [7]: 0%
- mortality at 400 ppm [8]: 0%
- pest or weed control at 400 µg/mL [9]: 90 to 100%
- pest or weed control at 400 µg/mL [10]: 20 to 89%
- pest or weed control at 400 µg/mL [11]: 90 to 100%
- pest or weed control at 400 µg/mL [12]: 90 to 100%

SMILES: N#Cc1ccc(Oc2ccc(CCOc3ncnc4ccccc34)cc2)nc1 [Compound 21]
- pest or weed control at 400 µg/mL [1]: 20 to 89%
- mortality at 400 ppm [2]: 60%
- pest or weed control at 400 ppm [3]: 0%
- mortality at 24 ppm [4]: 0%
- pest or weed control at 400 ppm [5]: 0%
- mortality at 400 ppm [6]: 0%
- mortality at 400 ppm [7]: 100%
- mortality at 400 ppm [8]: 0%
- pest or weed control at 400 µg/mL [9]: 90 to 100%
- pest or weed control at 400 µg/mL [10]: 20 to 89%
- pest or weed control at 400 µg/mL [11]: 90 to 100%
- pest or weed control at 400 µg/mL [12]: 20 to 89%

SMILES: O=[N+]([O-])c1ccc(Oc2ccc(CCOc3ncnc4c(F)cccc34)cc2)nc1 [Compound 23]
- pest or weed control at 400 µg/mL [1]: 20 to 89%
- mortality at 50 ppm [2]: 60%
- mortality at 400 ppm [2]: 80%
- pest or weed control at 50 ppm [3]: 100%
- pest or weed control at 400 ppm [3]: 100%
- mortality at 24 ppm [4]: 0%
- pest or weed control at 50 ppm [5]: 100%
- pest or weed control at 400 ppm [5]: 100%
- mortality at 50 ppm [6]: 0%
- mortality at 400 ppm [6]: 40%
- mortality at 50 ppm [7]: 0%
- mortality at 400 ppm [7]: 90%
- mortality at 50 ppm [8]: 0%
- mortality at 400 ppm [8]: 50%
- pest or weed control at 400 µg/mL [9]: 90 to 100%
- pest or weed control at 400 µg/mL [10]: 20 to 89%
- pest or weed control at 400 µg/mL [11]: 90 to 100%
- pest or weed control at 400 µg/mL [12]: 20 to 89%

SMILES: Fc1cccc2c(OCCc3ccc(Oc4ccc(C(Cl)(Cl)Cl)cn4)cc3)ncnc12 [Compound 25]
- pest or weed control at 400 µg/mL [1]: 20 to 89%
- mortality at 400 ppm [2]: 0%
- pest or weed control at 400 ppm [3]: 0%
- mortality at 24 ppm [4]: 0%
- pest or weed control at 400 ppm [5]: 100%
- mortality at 400 ppm [6]: 0%
- mortality at 400 ppm [7]: 85%
- mortality at 400 ppm [8]: 90%
- pest or weed control at 400 µg/mL [9]: 90 to 100%
- pest or weed control at 400 µg/mL [10]: 0 to 19%
- pest or weed control at 400 µg/mL [11]: 90 to 100%
- pest or weed control at 400 µg/mL [12]: 20 to 89%

SMILES: ClC(Cl)(Cl)c1ccc(Oc2ccc(CCOc3ncnc4ccccc34)cc2)nc1 [Compound 26]
- pest or weed control at 400 µg/mL [1]: 20 to 89%
- mortality at 400 ppm [2]: 100%
- pest or weed control at 400 ppm [3]: 0%
- mortality at 24 ppm [4]: 0%
- pest or weed control at 400 ppm [5]: 100%
- mortality at 400 ppm [6]: 0%
- mortality at 400 ppm [7]: 100%
- mortality at 400 ppm [8]: 100%
- pest or weed control at 400 µg/mL [9]: 90 to 100%
- pest or weed control at 400 µg/mL [10]: 0 to 19%
- pest or weed control at 400 µg/mL [11]: 90 to 100%
- pest or weed control at 400 µg/mL [12]: 0 to 19%

SMILES: Fc1cccc2c(NCCc3ccc(Oc4ccc(C(F)(F)F)cn4)cc3)ncnc12 [Compound 28, 8-Fluoro-4-(2-(4-(5-(trifluoromethyl)-2-pyridinyloxy)phenyl)ethylamino)quinazoline]
- pest or weed control at 400 µg/mL [1]: 20 to 89%
- mortality at 50 ppm [2]: 100%
- mortality at 400 ppm [2]: 100%
- pest or weed control at 50 ppm [3]: 100%
- pest or weed control at 400 ppm [3]: 100%
- mortality at 24 ppm [4]: 0%
- pest or weed control at 50 ppm [5]: 100%
- pest or weed control at 400 ppm [5]: 100%
- mortality at 50 ppm [6]: 0%
- mortality at 400 ppm [6]: 80%
- mortality at 50 ppm [7]: 100%
- mortality at 400 ppm [7]: 100%
- mortality at 50 ppm [8]: 100%
- mortality at 400 ppm [8]: 100%
- pest or weed control at 400 µg/mL [9]: 90 to 100%
- pest or weed control at 400 µg/mL [10]: 90 to 100%
- pest or weed control at 400 µg/mL [11]: 90 to 100%
- pest or weed control at 400 µg/mL [12]: 90 to 100%

SMILES: FC(F)(F)c1ccc(Oc2ccc(CCNc3ncnc4ccccc34)cc2)nc1 [Compound 29]
- pest or weed control at 400 µg/mL [1]: 90 to 100%
- mortality at 50 ppm [2]: 100%
- mortality at 400 ppm [2]: 100%
- pest or weed control at 50 ppm [3]: 100%
- pest or weed control at 400 ppm [3]: 100%
- mortality at 24 ppm [4]: 100%
- pest or weed control at 50 ppm [5]: 100%
- pest or weed control at 400 ppm [5]: 100%
- mortality at 50 ppm [6]: 0%
- mortality at 400 ppm [6]: 20%
- mortality at 50 ppm [7]: 90%
- mortality at 400 ppm [7]: 100%
- mortality at 50 ppm [8]: 100%
- mortality at 400 ppm [8]: 100%
- pest or weed control at 400 µg/mL [9]: 90 to 100%
- pest or weed control at 400 µg/mL [10]: 20 to 89%
- pest or weed control at 400 µg/mL [11]: 90 to 100%
- pest or weed control at 400 µg/mL [12]: 90 to 100%
